Read-outs that look alike come from different tables or passages of the source. One block for each compound: values may come before it.
What was measured:
[1] = system: normotensive anesthetized rat; test: Mean arterial blood pressure and heart rate in normotensive anesthetized rat; format: in vivo; conditions: for Anesthetized Rat HR/ED25: intravenous dose lowering heart rate by 25%; for Anesthetized Rat MAP/ED25: intravenous dose lowering mean arterial pressure by 25%
Method: Normotensive rats are anesthetized with sodium pentobarbital (50 mg/kg, i.p.) and placed on a heated surgical table. Cannulas are inserted into the femoral artery and veined to allow the measurement of arterial pressure and to facilitate the intravenous administration of test compounds. The animals are allowed to equilibrate for 10 minutes after surgery. Mean arterial pressure is continuously measured and recorded and heart rate is monitored using the arterial pressure pulse to trigger a cardiotachometer. After baseline parameters are established and recorded, increasing doses (1, 3, 10, 30, 100, 300 and 1000 μg/kg) of the compound of Formula I to be tested are administered intravenously. Maximal changes in the cardiovascular parameters are observed after each dose of the adenosine agonist. Only one compound is administered per rat.

[2] = system: swine coronary arteries; test: In vitro vasorelaxation in isolated swine coronary arteries; format: cell-based
Method: Swine coronary arteries are obtained from a local slaughter house, dissected carefully and cleaned of fat, blood and adhering tissue. Rings approximately 2-3 mm wide are cut and transferred to water-jacketed tissue baths (10 mL) filled with warm (37° C.), oxygenated (O2/CO2:95%/5%) Krebs-Henseleit buffer and mounted on L-shaped hooks between stainless steel rods and a force transducer. […] PGF2a, before being exposed to 3 μM PGF2a.

[3] = system: spontaneously hypertensive rat (SHR); test: Oral antihypertensive activity in conscious spontaneously hypertensive rat (SHR); format: in vivo; conditions: D signifies decrease, I signifies increase
Method: The oral antihypertensive activity of compounds of Formula I are examined in conscious spontaneously hypertensive rats. The rats are anesthetized with sodium phenobarbitol (50 mg/kg i.p.). A telemetry transducer is implanted into the rats abdomen via midline incision. The cannula of the transducer is inserted into the abdominal aorta to allow direct measurement of arterial pressure in the conscious SHR. The transducer is secured to the abdominal wall. After recovery from surgery (minimum of seven days), the SHR are placed on a receiver plate and the transducer/transmitter is activated. Systolic, diastolic and mean arterial pressure and heart rate are recorded for 1.5 hours in the unrestrained conscious rat to establish a stable baseline. Each rat then received a single dose of the compound of Formula I to be tested, or vehicle, and changes in arterial pressure and heart rate are monitored for 20 hours and recorded.

[4] = target: T1, A2 receptor (Rattus norvegicus, UniProt P30543); test: A2 adenosine receptor binding, displacement of 3H-CGS 21680, rat brain striatum membranes; conditions: 3H-CGS 21680 displacement, rat brain striatum membranes, 25° C., 90 minutes; read-out: Adenosine Receptor Binding Activity/IC50 (nM) A2
T1 construct: using membranes from rat brain striatum; from tissue; host or cells: rat brain striatum membranes
T1 sequence (P30543 whole entry): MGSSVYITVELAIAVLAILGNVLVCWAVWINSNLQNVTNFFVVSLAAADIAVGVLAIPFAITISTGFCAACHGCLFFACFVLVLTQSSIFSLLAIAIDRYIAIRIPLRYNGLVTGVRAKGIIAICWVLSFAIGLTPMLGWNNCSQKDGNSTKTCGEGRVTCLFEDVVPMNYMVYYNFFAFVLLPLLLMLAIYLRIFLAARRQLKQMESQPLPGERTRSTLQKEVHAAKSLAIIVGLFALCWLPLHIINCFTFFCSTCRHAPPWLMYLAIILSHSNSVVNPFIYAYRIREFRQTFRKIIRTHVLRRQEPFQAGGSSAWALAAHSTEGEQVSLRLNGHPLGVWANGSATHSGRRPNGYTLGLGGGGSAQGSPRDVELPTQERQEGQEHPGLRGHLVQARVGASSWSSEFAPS
Method: Non-specific binding is assessed in the presence of 20 μm 2-chloroadenosine.
(§1) The assays are run in glass test tubes in duplicate at 25° C. Once the membranes are added, the tubes are vortexed and incubated at 25° C. for 60 minutes (A1 assay) or 90 minutes (A2 assay) on a rotary shaker. The assay tubes are vortexed halfway through the incubation and again near the end. The assays are terminated by rapid filtration through 2.4 cm GF/B filters using a Brandel Cell Harvestor. The test tubes are washed three times with cold 50 mM tris-HCl (pH 7.7 or 7.4), with filtration being completed within 15 seconds. The damp filter circles are placed in glass scintillation vials filled with 10 ml of Aquasol II (New England Nuclear). The vials are allowed to shake overnight on a rotary shaker and are placed into a liquid scintillation analyzer for two minute counts. IC50 values for receptor binding, i.e. the concentration at which a compound of Formula I displaced the radiolabeled standard, are obtained using a curve-fitting computer program (RS/1, Bolt, Beranek and Newman, Boston, Mass.).

[5] = target: T2, A1 receptor (Rattus norvegicus, UniProt P25099); test: A1 adenosine receptor binding, displacement of 3H-CHA, whole rat brain membranes; conditions: 3H-CHA displacement, 25° C., 60 minutes
T2 construct: using a membrane preparation of whole rat brain; from tissue; host or cells: whole rat brain membranes
T2 sequence (P25099 1-326): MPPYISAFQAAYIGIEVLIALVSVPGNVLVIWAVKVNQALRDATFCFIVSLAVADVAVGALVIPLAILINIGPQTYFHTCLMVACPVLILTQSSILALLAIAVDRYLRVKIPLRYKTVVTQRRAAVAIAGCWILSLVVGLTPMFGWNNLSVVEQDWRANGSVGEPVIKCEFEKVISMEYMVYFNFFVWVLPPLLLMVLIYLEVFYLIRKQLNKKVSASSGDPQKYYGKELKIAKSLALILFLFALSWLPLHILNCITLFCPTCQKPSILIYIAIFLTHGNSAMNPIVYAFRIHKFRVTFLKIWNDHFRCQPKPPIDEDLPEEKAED
Method: Non-specific binding is assessed in the presence of 1 mM theophylline.
as §1

[6] = system: rat adipocytes; test: Antilipolytic activity in rat adipocytes (in vitro lipolysis assay, glycerol production); format: cell-based; conditions: rat adipocytes, norepinephrine-stimulated; for EC50: read-out: EC50 (50% inhibition of glycerol production)
Method: Adipose tissue is removed from anesthetized rats and rinsed twice in incubation medium (2.09 g sodium bicarbonate and 0.04 g EDTA, disodium salt, in 1 L Krebs buffer). Each rat (300-350g) yields approximately 4 ml of adipose tissue. The adipose tissue (35 mL) is cut into small pieces with scissors and washed with incubation medium (50 mL). The mixture is poured into the barrel of a 50 mL syringe to which is attached a short piece of clamped tubing instead of a needle. The aqueous phase is allowed to drain. A second wash with incubation medium is passed through the syringe. The tissue is added to 50 mL of collagenase solution (collagenase (90 mg), bovine serum albumin (BSA) (500 mg), and 0.1 M calcium chloride solution (1 mL), in incubation medium (50 mL)) in a 1 L bottle. The mixture is shaken in an environmental at 37 ° C. for about 60 minutes under an atmosphere of 95% oxygen/5% carbon dioxide to effect digestion of the tissue. The dispersed cells are poured through 2 layers of cheese cloth into a 100 mL plastic beaker. The undigested clumps in the cloth are rinsed once with incubation medium (20 mL). The cells in the beaker are centrifuged in 2 plastic tubes for 30 seconds at room temperature at 300 rpm. The aqueous phase is aspirated from beneath the loosely packed layer of floating fat cells and discarded. The adipocytes are gently poured into a 250 mL plastic beaker containing 100 mL of rinse solution (1 g BSA per 100 mL incubation medium). After gentle stirring the centrifugation step is repeated. Another wash with rinse solution follows. The cells are pooled and their volume is estimated with a graduated cylinder. The adipocytes are diluted in twice their volume of assay buffer (incubation medium (120 mL), BSA (1.2 g), pyruvic acid (13 mg)).
The assay is performed in 20 mL plastic scintillation vials and the total assay volume is 4.2 ml. Assay buffer (2.5 mL), diluted adipocytes (1.5 mL), and a solution of the compound to be tested (12.3 μL) adenosine agonist (12.3 μL; varying concentration) is incubated in the environmental shaker for 15 minutes, then the reaction is started with norepinephrine solution (41.2 μL) (10 nM, in a carrier solution containing water (100 mL), BSA (4 mg), and 0.1 M EDTA (20 μL))and adenosine deaminase (1 μg/ml, 41.2 μL). After sixty minutes in the shaker the reaction is terminated by putting the vials on ice. […] The hard lipid layer is removed by aspiration and the aqueous layer is assayed for glycerol (400 μL of sample). The positive control is done in the absence of any adenosine agonist, substituting water in place of the solution to be tested.

[7] = system: A1 and A2 receptors; conditions: selectivity, background section; cited from earlier work
[8] = system: A2 receptor; conditions: background section; cited from earlier work
[9] = 50% reduction in tension of rings contracted with 3 μM PGF2a, read-out: Vasorelaxation in Swine Coronary Artery/IC50
[10] = Sus scrofa, read-out: Vasorelaxation in Swine Coronary Artery/IC50 (μM)

IC50 [2, 9]: 22 µM
SMILES: CCNC(=O)C1CC(n2cnc3c(NCCNc4nc5ccccc5s4)ncnc32)C(O)C1O (racemic) [Example 29, (±)-N^6-[2-(2′-aminobenzothia-zoly)ethyl]carbocyclic adenosine-5′-N-ethyl carboxamide]
Anesthetized Rat HR/ED25 [1]: 0.031 mg/kg
Anesthetized Rat MAP/ED25 [1]: 0.016 mg/kg
SHR HR/% ([3]; single oral dose 5 mg/kg): 12 (D) %
SHR MAP/% ([3]; single oral dose 5 mg/kg): 18 (D) %

SMILES: OC[C@H]1O[C@@H](n2cnc3c(N[C@@H]4CC=CC[C@H]4c4cccs4)ncnc32)[C@H](O)[C@@H]1O (relative stereo) [Example 4, N6-[trans-2-(thiophen-2-yl)cyclohex-4-en-yl]adenosine]
Anesthetized Rat HR/ED25 [1]: 0.019 mg/kg
Anesthetized Rat MAP/ED25 [1]: 0.013 mg/kg
IC50 [4]: 55 nM
IC50 [2, 10]: 0.73 µM
melting point: 105 to 110 °C
SHR HR/% ([3]; single oral dose 5 mg/kg): 20 (D) %
SHR MAP/% ([3]; single oral dose 5 mg/kg): 28 (D) %
IC50 [5]: 1.66 nM

SMILES: CCNC(=O)C1CC(n2cnc3c(N[C@H](C)Cc4ccc(Cl)s4)ncnc32)C(O)C1O (single isomer, unassigned; (-)) [Example 6]
IC50 [4]: 12.9 nM
IC50 [2, 9]: 0.021 µM
SHR HR/% ([3]; single oral dose 1 mg/kg): 7 (I) %
SHR MAP/% ([3]; single oral dose 1 mg/kg): 18 (D) %
IC50 [5]: 2.69 nM
EC50 [6]: 0.76 nM

IC50 [4]: 63.1 nM
IC50 [2, 9]: 0.082 µM
IC50 [5]: 87.1 nM
EC50 [6]: 89 nM
SMILES: CCNC(=O)C1CC(n2cnc3c(NCCc4cccs4)ncnc32)C(O)C1O (single isomer, unassigned; (-)) [Example 26, (−)-N^6-[(thiophen-2″-yl)ethan-2-yl]carbocyclic adenosine-5′-N-ethyl carboxamide]
Anesthetized Rat HR/ED25 [1]: >0.03 mg/kg
Anesthetized Rat MAP/ED25 [1]: 0.004 mg/kg
SHR HR/% ([3]; single oral dose 2.5 mg/kg): 3 (I) %
SHR MAP/% ([3]; single oral dose 2.5 mg/kg): 41 (D) %
% Inhibition of glycerol production, 1 μM ([6]; 1 μM compound versus positive control): 96%

SMILES: Nc1nc(Nc2ccccc2)nc2c1ncn2[C@@H]1O[C@H](CO)[C@@H](O)[C@H]1O [CV-1808]
A2/A1 ratio [7]: 0.19
fold less potent than NECA in affinity for the A2 receptor [8]: 10 fold

SMILES: CCNC(=O)[C@H]1C[C@@H](n2cnc3c(NC(Cc4cccs4)C(C)C)ccnc32)[C@H](O)[C@@H]1O (stereo partly drawn) [Example 38, [1S-[1a,2b,3b,4a]]-4-[7-[[2-(2-thienyl)-1-isopropylethyl]amino]-3H-imidazo[4,5-b]pyridin-3-yl]-N-ethyl-2,3-dihydroxycyclopentanecarboxamide]
IC50 [4]: 55.5 nM
IC50 [2, 10]: 0.47 µM
melting point: 75 to 85 °C
IC50 [5]: 5.7 nM

SMILES: CCNC(=O)[C@H]1C[C@@H](n2cnc3c(N[C@H](C)Cc4cccs4)ccnc32)[C@H](O)[C@@H]1O [Example 40, [1S-[1a,2b,3b,4a(S*)]]-4-[7-[[2-(2-thienyl)-1-methylethyl]amino]-3H-imidazo[4,5-b]pyridin-3-yl]-N-ethyl-2,3-dihydroxycyclopentane-carboxamide]
IC50 [4]: 68.8 nM
IC50 [2, 10]: 283 µM
melting point: 155 to 160 °C
IC50 [5]: 9.3 nM

SMILES: CCNC(=O)[C@H]1C[C@@H](n2cnc3c(N[C@H](C)Cc4ccc(Cl)s4)ncnc32)[C@@H]2OC(=S)O[C@@H]21 [Example 46, (2S)-2a,3a-dihydroxy-4β-[N6-[2-(5-chloro-2-thienyl)-(1R)-1-methylethyl]amino-9-adenyl]cyclopentane-1β-N-ethylcarboxamide-2,3-thiocarbonate]
IC50 [4]: 81 nM
IC50 [2, 10]: 3.52 µM
IC50 [5]: 13.5 nM
EC50 ([6]; Adipocyte): 4 nM

Reference: patent US6392049B1, “Process for preparing 2,4-dihydroxypyridine and 2,4-dihydroxy-3-nitropyridine” (Aventis Pharmaceuticals Inc., priority 1996, dated 2002)
